These are literature values, as cited in article PMC12285096, “Tirzepatide mitigates Stroke-Induced Blood-Brain barrier disruption by modulating Claudin-1 and C/EBP-α pathways” (Molecular Medicine, 2025).

For this series the following is noted: cited from earlier work; for BBB penetration (Kp, brain): limited BBB penetration of GLP-1 analogs, ref Rhea et al. [2024], Lee et al. [2023], Hunter and Hölscher [2012], Secher et al. [2014].

As to semaglutide, the “BBB penetration (Kp, brain)” value was 0.02–0.05.

As for liraglutide, the “BBB penetration (Kp, brain)” value is recorded as 0.02–0.05. Further, under “in vivo”, the “Brain-to-plasma ratio (Kp, brain)” value is listed as 0.03 ± 0.01.
